≈ marks a conversion by molar mass, not a printed value. Calls of active or inactive are those of the source. The calls are words filed in the database; no cut-off is given here.
Key:
[1] = Induction of mitochondria membrane potential loss in human A-431 cells assessed as red fluorescence intensity at 7.5 nM incubated 48 hrs by JC-1 probe based flow cytometry analysis (reference value: 93.83%); type: functional
[2] = Induction of mitochondria membrane potential loss in human A-431 cells assessed as red fluorescence intensity at 15 nM incubated 48 hrs by JC-1 probe based flow cytometry analysis (reference value: 93.83%); type: functional
HCT-8 [3] = assay: Antiproliferative activity against human HCT-8 cells assessed as reduction in cell viability incubated for 72 hrs by MTT assay; type: functional, cell-based; settings: Homo sapiens, HCT-8, 72 h; read-out: IC50
H22 [4] = assay: Antiproliferative activity against mouse H22 cells assessed as reduction in cell viability incubated for 72 hrs by MTT assay; type: functional, cell-based; settings: H22, 72 h
Bel-7402 = assay: Antiproliferative activity against human Bel-7402 cells assessed as reduction in cell viability incubated for 72 hrs by MTT assay; type: functional, cell-based; settings: Homo sapiens, Bel-7402, 72 h; read-out: IC50
[5] = Resistant index, ratio of IC50 for ADR-resistant human Bel-7402 cells to IC50 for human Bel-7402 cells; type: functional
HCT-8 [6] = assay: Antiproliferative activity against taxol-resistant human HCT-8 cells assessed as reduction in cell viability incubated for 72 hrs by MTT assay; type: functional, cell-based; settings: Homo sapiens, HCT-8, 72 h; read-out: IC50
[7] = Resistant index, ratio of IC50 for taxol-resistant human HCT-8 cells to IC50 for human HCT-8 cells; type: functional
K562/VCR = assay: Antiproliferative activity against VCR resistant human K562/VCR cells assessed as reduction in cell viability incubated for 72 hrs by MTT assay; type: functional, cell-based; settings: Homo sapiens, K562/VCR, 72 h; read-out: IC50
[8] = Aqueous solubility of the compound in phosphate buffer at pH 7.4 by HPLC-UV analysis; type: physicochemical
[9] = Aqueous solubility of the compound in aqueous HCl at pH 2 by HPLC-UV analysis; type: physicochemical
[10] = n-Octanol/water partition coefficient, logD of the compound incubated for 24 hrs at pH 7.4 by HPLC analysis; type: physicochemical
Sus scrofa [11] = organism: Sus scrofa; assay: Inhibition of [3H]colchicine binding to biotinylated pig brain tubulin at 1 uM incubated for 2 hrs in presence of GTP by competitive scintillation proximity assay; type: tissue-based
Sus scrofa [12] = organism: Sus scrofa; assay: Inhibition of [3H]colchicine binding to biotinylated pig brain tubulin at 5 uM incubated for 2 hrs in presence of GTP by competitive scintillation proximity assay; type: tissue-based
A-431 [13] = assay: Induction of cell cycle arrest in human A-431 cells assessed as accumulation at G2 phase at 15 nM after 48 hrs by propidium iodide staining based flow cytometry (reference value: 7.27%); type: functional
A-431 [14] = assay: Induction of cell cycle arrest in human A-431 cells assessed as accumulation at G1 phase at 30 nM after 48 hrs by propidium iodide staining based flow cytometry (reference value: 41.16%); type: functional
A-431 [15] = assay: Cell cycle arrest in human A-431 cells assessed as downregulation of CyclinB1 expression by Western blot analysis; type: functional, cell-based; settings: dose 7.5-30 nM
A-431 [16] = assay: Cell cycle arrest in human A-431 cells assessed as downregulation of cdc2 expression by Western blot analysis; type: functional, cell-based; settings: dose 7.5-30 nM
A-431 [17] = assay: Cell cycle arrest in human A-431 cells assessed as downregulation of p-histone H3 expression by Western blot analysis; type: functional, cell-based; settings: dose 7.5-30 nM
A-431 [18] = assay: Induction of apoptosis in human A-431 cells assessed as viable cells at 7.5 nM after 48 hrs by Annexin-V-APC/PI-staining based flow cytometric analysis (reference value: 93.37%); type: functional; settings: read-out: Activity
A-431 [19] = assay: Induction of apoptosis in human A-431 cells assessed as early apoptotic cells at 7.5 nM after 48 hrs by Annexin-V-APC/PI-staining based flow cytometric analysis (reference value: 0.82%); type: functional
A-431 [20] = assay: Induction of apoptosis in human A-431 cells assessed as late apoptotic cells at 7.5 nM after 48 hrs by Annexin-V-APC/PI-staining based flow cytometric analysis (reference value: 2.02%); type: functional
A-431 [21] = assay: Induction of apoptosis in human A-431 cells assessed as viable cells at 15 nM after 48 hrs by Annexin-V-APC/PI-staining based flow cytometric analysis (reference value: 93.37%); type: functional; settings: read-out: Activity
A-431 [22] = assay: Induction of apoptosis in human A-431 cells assessed as early apoptotic cells at 15 nM after 48 hrs by Annexin-V-APC/PI-staining based flow cytometric analysis (reference value: 0.82%); type: functional
A-431 [23] = assay: Induction of apoptosis in human A-431 cells assessed as viable cells at 30 nM after 48 hrs by Annexin-V-APC/PI-staining based flow cytometric analysis (reference value: 93.37%); type: functional; settings: read-out: Activity
A-431 [24] = assay: Induction of apoptosis in human A-431 cells assessed as late apoptotic cells at 30 nM after 48 hrs by Annexin-V-APC/PI-staining based flow cytometric analysis (reference value: 2.02%); type: functional
A-431 [25] = assay: Induction of apoptosis in human A-431 cells assessed as necrotic cells at 30 nM after 48 hrs by Annexin-V-APC/PI-staining based flow cytometric analysis (reference value: 3.79%); type: functional
A-431 [26] = assay: Induction of apoptosis in human A-431 cells assessed as upregulation of Bax protein expression by western blot analysis; type: functional, cell-based; settings: dose 7.5-30 nM
A-431 [27] = assay: Induction of apoptosis in human A-431 cells assessed as activation of caspase 3 by western blot analysis; type: functional, cell-based; settings: dose 7.5-30 nM
[28] = Induction of mitochondria membrane potential loss in human A-431 cells assessed as red fluorescence intensity at 30 nM incubated for 48 hrs by JC-1 probe based flow cytometry analysis (reference value: 93.83%); type: functional
[29] = Induction of mitochondria membrane potential loss in human A-431 cells assessed as green fluorescence intensity at 30 nM incubated for 48 hrs by JC-1 probe based flow cytometry analysis (reference value: 5.98%); type: functional
H22 [30] = assay: Antivascular activity against […] xenografted in ICR mouse assessed as reduction in tumor microvessel density at 20 mg/kg/day, iv administered for 21 days by immunohistochemical staining based analysis; type: functional, organism-based; settings: time 21.0 day
A-431 [31] = assay: Induction of ROS generation in human A-431 cells at 30 nM incubated for 48 hrs by DCFH-DA dye based fluorescence microscopy (reference value: 6.17%); type: functional
[32] = Induction of mitochondria membrane potential loss in human A-431 cells assessed as green fluorescence intensity at 7.5 nM incubated 48 hrs by JC-1 probe based flow cytometry analysis (reference value: 5.98%); type: functional
HepG2 = assay: cells; settings: Homo sapiens, HepG2, 72 h

Work on `COc1ccc(CNC(=O)c2cc(F)ccc2N2CCOCC2)cc1O` yielded an Activity [1] of 73.18%, an Activity [2] of 54.43% and an IC50 (HCT-8 [3]) of 20 nM. The IC50 (H22 [4]) was 24 nM, the IC50 (Bel-7402) was 27 nM and the “Ratio IC50” value [5] was 3.9. For the same compound, the IC50 (HCT-8 [6]) was 106 nM, the “Ratio IC50” value [7] was 5.3 and the IC50 (K562/VCR) was 205 nM. For the same compound, the solubility [8] was 76.6 µg/mL (≈ 213 µM), the solubility [9] was 323 µg/mL (≈ 897 µM) and the logD at 24 h [10] was 1.61. It also gave an inhibition (Sus scrofa [11]) of 56.9%, an inhibition (Sus scrofa [12]) of 82.9% and an Activity (A-431 [13]) of 16.25%. For the same compound, the Activity (A-431 [14]) was 56.41%, the Activity (A-431 [15]) was “Dose-Dependent Effect” and the Activity (A-431 [16]) was “Dose-Dependent Effect”. The Activity (A-431 [17]) was “Dose-Dependent Effect”, the viability at 0.0075 µM (A-431 [18]) was 71% and the Activity (A-431 [19]) was 11.52%. For the same compound, the Activity (A-431 [20]) was 9.21%, the viability at 0.015 µM (A-431 [21]) was 45.4% and the Activity (A-431 [22]) was 18.35%. For the same compound, the viability at 0.03 µM (A-431 [23]) was 26.5%, the Activity (A-431 [24]) was 32.12% and the Activity (A-431 [25]) was 7.35%. For the same compound, the Activity (A-431 [26]) was “Dose-Dependent Effect”, the Activity (A-431 [27]) was “Dose-Dependent Effect” and the Activity [28] was 33.88%. The Activity [29] was 65.96%, the Activity (H22 [30]) was “Active” and the Activity (A-431 [31]) was 21.99%. For the same compound, the Activity [32] was 26.73% and the IC50 (HepG2) was 25 nM.

Reference: ChEMBL document CHEMBL4813973, “Discovery of novel N-benzylbenzamide derivatives as tubulin polymerization inhibitors with potent antitumor activities” (Eur J Med Chem, 2021)
